Source: patent publication US20260159854A1, “NOVEL CARRIERS FOR NUCLEIC ACID AND/OR PROTEIN DELIVERY” (LUDWIG-MAXIMILIANS-UNIVERSITÄT MÜNCHEN, priority 2022, published 2026)

Assays:
[1] = Particle size, polydispersity and zeta potential measurement (DLS, ELS); type: physicochemical; parameters: Zeta / Size: unit not given here
Procedure: 6.6 Particle Size and Zeta Potential Measurement for pDNA, mRNA, siRNA, Cas9 mRNA/sgRNA and Cas9 mRNA/sgRNA/ssDNA Polyplexes as Well as mRNA LNPs
Measurements of size and zeta potential were performed with a Zetasizer Nano ZS (Malvern Instruments, Malvern, Worcestershire, U.K.) in a folded capillary cell (DTS1070) by dynamic and electrophoretic laser-light scattering (DLS, ELS). […] Samples were measured three times with six sub runs per measurement. For measurement of the zeta potential, all samples were diluted to 800 μL with HBG or HEPES (for siRNA polyplexes) directly before measurement. Parameters were identical to the size measurement apart from an equilibration time of 60 sec. Three measurements with 15 sub runs lasting 10 sec each were performed, and zeta potentials were calculated by the Smuchowski equation.

[2] = test system: N2a tumor-bearing A/J mice; assay: Ex vivo luciferase expression after intravenous injection of mRNA polyplexes; type: in vivo; conditions: tumors, lungs, liver, spleen
Procedure: Neuro2a cells (10^6 cells/150 μL PBS) were inoculated subcutaneously into the left flank of 6-week-old female A/J mice (Envigo RMS GmbH, Dusseldorf, Germany). Mice were randomly divided into groups of three (in the case of mRNA LNPs) or five (in the case of mRNA polyplexes) and were housed in isolated ventilated cages under specific pathogen free conditions with a 12 h day/night interval, and food and water ad libitum. Weight and general well-being were monitored continuously. Tumor size was measured with a caliper and determined by formula: a*b^2/2 (a=longest side of the tumor; b=widest side vertical to a). When tumors reached a size of 250-500 mm3, the experiments were performed by intravenous tail vein injection of polyplexes or LNPs formed as described in 6.1 and 6.3, containing 1 μg, 3 μg or 10 μg of stabilized firefly luciferase encoding mRNA (CleanCap™ FLuc mRNA (5moU); Trilink Biotechnologies, San Diego, CA, USA) in 150 μL HBG. Polyplexes containing 10 μg mRNA were dialyzed for 1 h at 4° C. against HBG (dialysis membrane MWCO 100-500 Da; Spectra/Por®, Carl Roth, Karlsruhe, Germany) prior to application to remove small amounts of ethanol. […] The luciferase gene expression was determined as described above and is presented as relative light units (RLU) per gram (g) tumor/organ.
To evaluate luciferase mRNA delivery by an ex vivo luciferase gene expression assay, organ and tumor tissues were homogenized in Luciferase Cell Culture Lysis Reagent 1× (Promega, Mannheim, Germany), supplemented with 1% (v/v) protease and phosphatase inhibitor cocktail (Sigma-Aldrich, Munich, Germany) using a tissue and cell homogenizer (FastPrep®-24, MP Biomedicals, USA). […] Luciferase activity in 25 μL supernatant was measured in a Centro LB 960 plate reader luminometer (Berthold Technologies, Bad Wildbad, Germany) for 10 sec after addition of 100 μL/well of a LAR buffer solution (20 mM glycylglycine, 1.0 mM MgCl2, 0.10 mM EDTA, 3.3 mM DTT, 0.55 mM ATP, and 0.27 mM coenzyme A; pH 8-8.5) supplemented with 5% (v/v) of a mixture of 10 mM luciferin and 29 mM glycylglycine.

[3] = test system: KB, U87, and HCT116 cells; conditions: 10 ng poly(I:C) per well, 48 h, especially in KB cells
Procedure: The cytotoxic effect of double-stranded RNA (poly(I:C)) was evaluated in cancer cells using LAF carriers 1611, 1719, and 1752. The toxicity induced by poly(I:C) and carriers were differentiated by using non-toxic single-stranded poly(I). LPEI and the LAF-Stp carriers were transfected in medium supplemented with 10% (v/v) FBS. In the case of lipofectamine, particles were prepared and transfected according to the manufacturer's protocol (particle formation as well as transfection in serum-free medium; ThermoFisher). At 4 h after lipofectamine transfection, medium was replaced with fresh medium supplemented with 10% (v/v) FBS followed by incubation of 48 h in total. The percentage of cell survival was calculated relative to the HBG buffer-treated control cells (n=3, mean+SD).

Huh7 cells = assay: Luciferase expression assay of pDNA polyplexes in Huh7 cells; type: cell-based, human
[4] = Cas9 mRNA/sgDMDex23 polyplexes, N/P 24, combined nucleic acid 12.5 μg/mL
[5] = PEGylated pDNA polyplexes 25% PEG, 10 μg/mL pCMVLuc
[6] = Targeted pDNA polyplexes 12.5% PEG 2k, 12.5% PEG-GE11, 10 μg/mL pCMVLuc
[7] = Unmodified pDNA polyplexes 0%, 10 μg/mL pCMVLuc
[8] = dialyzed mRNA polyplexes for in vivo application, 66.7 μg/mL mRNA, 1611 N/P 18, 1719 N/P 12
[9] = mRNA polyplexes, 12.5 μg/mL CleanCap FLuc mRNA (5moU), N/P 12 (1611, 1719, 1722, 1732), N/P 24 (1614), N/P 18 (1621, 1747)
[10] = pDNA polyplexes, N/P 12, 10 μg/mL pCMVLuc
[11] = poly(I) polyplexes, 12.5 μg/mL, 1611 N/P 18, 1719 N/P 12, 1752 N/P 24
[12] = poly(I:C) polyplexes, 12.5 μg/mL, 1611 N/P 18, 1719 N/P 12, 1752 N/P 24

For “[K(12Oc)]2-Stp2-[K(12Oc)]2 [compound 1719]”, which Pdl [1, 4] is on record?
Its Pdl is 0.268.

What about the Z-average [1, 4] of the same substance?
Its Z-average is 80.8 nm.

What about the Zeta potential [1, 4] of the same substance?
The Zeta potential was 42.6 mV.

What about the Pdl [1, 5] of the same substance?
The Pdl was 0.13.

And the Size [1, 5]?
Its Size is 76.

And the Zeta [1, 5]?
Its Zeta is 10.5.

And the Pdl [1, 6]?
Its Pdl is 0.13.

And the Size [1, 6]?
The Size was 88.

What about the Zeta [1, 6] of the same substance?
Its Zeta is 10.5.

What about the Pdl [1, 7] of the same substance?
The Pdl was 0.09.

And the Size [1, 7]?
Its Size is 77.

What about the Zeta [1, 7] of the same substance?
The Zeta was 29.5.

And the Pdl [1, 8]?
The Pdl was 0.176 ± 0.016.

What about the Zeta potential [1, 8] of the same substance?
Its Zeta potential is 30.7 ± 1.7 mV.

What about the Pdl [1, 9] of the same substance?
The Pdl was 0.225.

And the Z-average [1, 9]?
The Z-average was 75.0 nm.

What about the Zeta potential [1, 9] of the same substance?
Its Zeta potential is 33.0 mV.

What about the Pdl [1, 10] of the same substance?
Its Pdl is 0.220 ± 0.001.

What about the Z-average [1, 10] of the same substance?
The Z-average was 110.4 ± 1.89 nm.

And the Zeta potential [1, 10]?
Its Zeta potential is 13.0 ± 0.5 mV.

And the Pdl [1, 11]?
The Pdl was 0.32 ± 0.08.

And the Z-average [1, 11]?
The Z-average was 86.8 ± 11.4 nm.

What about the Zeta potential [1, 11] of the same substance?
The Zeta potential was 23.2 ± 0.4 mV.

And the Pdl [1, 12]?
The Pdl was 0.25 ± 0.05.

And the Z-average [1, 12]?
Its Z-average is 95.9 ± 2.1 nm.

And the Zeta potential [1, 12]?
The Zeta potential was 13.8 ± 2.9 mV.

And the “in vivo luciferase expression of mRNA polyplexes” value [2]?
Its value is “great in vivo performance”.

And the “cell viability after poly(I:C) polyplex treatment” value [3]?
Its value is “significant decrease in the cell viability”.

And the “RLU values of targeted polyplexes in comparison to shielded polyplexes” value (Huh7 cells; N/P 12, pDNA dose 50 ng/well)?
The value was 6.5 fold.

What about the “RLU values of targeted polyplexes in comparison to shielded polyplexes” value (Huh7 cells; N/P 12, pDNA dose 100 ng/well) of the same substance?
The value was 4.4 fold.
